Laboratory results reported in patent US20260069588A1, “VEPDEGESTRANT FOR USE IN TREATING CANCER” (Arvinas Operation, Inc., priority 2022, published 2026).

Assay: FIH Study Part A dose escalation: adverse events
Text: TEAEs and TRAEs from the clinical study database were coded to system organ class and preferred term using MedDRA version 22.0 and SAEs from the centralized safety database were coded using MedDRA version 25.0. The severity of adverse events was graded according to the NCI CTCAE version 5.0.

## O=C1CC[C@H](N2Cc3cc(N4CCN(CC5CCN(c6ccc([C@@H]7c8ccc(O)cc8CC[C@@H]7c7ccccc7)cc6)CC5)CC4)ccc3C2=O)C(=O)N1 [Compound A, (S)-3-(5-(4-((1-(4-((1R,2S)-6-hydroxy-2-phenyl-1,2,3,4-tetrahydronaphthalen-1-yl)phenyl)piperidin-4-yl)methyl)piperazin-1-yl)-1-oxoisoindolin-2-yl)piperidine-2,6-dione]
30 mg (N=3)
  TEAE Alanine aminotransferase increased: 0 n
  TEAE Arthralgia: 0 n
  TEAE Aspartate aminotransferase increased: 0 n
  TEAE Back pain: 0 n
  TEAE Constipation: 0 n
  TEAE Decreased appetite: 0 n
  TEAE Diarrhea: 0 n
  TEAE Dizziness: 0 n
  TEAE Fatigue: 0 n
  TEAE Headache: 0 n
  TEAE Hot flush: 1 n
  TEAE Hyperglycemia: 0 n
  TEAE Insomnia: 1 n
  TEAE Nausea: 0 n
  TEAE Pain in extremity: 0 n
  TEAE Vomiting: 0 n
  TRAE Arthralgia: 0 n
  TRAE Constipation: 0 n
  TRAE Decreased appetite: 0 n
  TRAE Fatigue: 0 n
  TRAE Hot flush: 0 n
  TRAE Nausea: 0 n
  TRAE Vomiting: 0 n
60 mg (N=3)
  TEAE Alanine aminotransferase increased: 0 n
  TEAE Arthralgia: 1 n
  TEAE Aspartate aminotransferase increased: 0 n
  TEAE Back pain: 0 n
  TEAE Constipation: 1 n
  TEAE Decreased appetite: 0 n
  TEAE Diarrhea: 0 n
  TEAE Dizziness: 1 n
  TEAE Fatigue: 1 n
  TEAE Headache: 1 n
  TEAE Hot flush: 0 n
  TEAE Hyperglycemia: 0 n
  TEAE Insomnia: 0 n
  TEAE Nausea: 2 n
  TEAE Pain in extremity: 1 n
  TEAE Vomiting: 0 n
  TRAE Arthralgia: 1 n
  TRAE Constipation: 0 n
  TRAE Decreased appetite: 0 n
  TRAE Fatigue: 1 n
  TRAE Hot flush: 0 n
  TRAE Nausea: 2 n
  TRAE Vomiting: 0 n
100 mg (N=9)
  TEAE Alanine aminotransferase increased: 0 n
  TEAE Arthralgia: 2 n
  TEAE Aspartate aminotransferase increased: 0 n
  TEAE Back pain: 1 n
  TEAE Constipation: 2 n
  TEAE Decreased appetite: 2 n
  TEAE Diarrhea: 4 n
  TEAE Dizziness: 0 n
  TEAE Fatigue: 2 n
  TEAE Headache: 1 n
  TEAE Hot flush: 1 n
  TEAE Hyperglycemia: 0 n
  TEAE Insomnia: 0 n
  TEAE Nausea: 2 n
  TEAE Pain in extremity: 0 n
  TEAE Vomiting: 1 n
  TRAE Arthralgia: 1 n
  TRAE Constipation: 1 n
  TRAE Decreased appetite: 2 n
  TRAE Fatigue: 1 n
  TRAE Hot flush: 1 n
  TRAE Nausea: 1 n
  TRAE Vomiting: 0 n
120 mg (N=7)
  TEAE Alanine aminotransferase increased: 1 n
  TEAE Arthralgia: 2 n
  TEAE Aspartate aminotransferase increased: 3 n
  TEAE Back pain: 1 n
  TEAE Constipation: 2 n
  TEAE Decreased appetite: 3 n
  TEAE Diarrhea: 0 n
  TEAE Dizziness: 1 n
  TEAE Fatigue: 0 n
  TEAE Headache: 2 n
  TEAE Hot flush: 1 n
  TEAE Hyperglycemia: 1 n
  TEAE Insomnia: 1 n
  TEAE Nausea: 2 n
  TEAE Pain in extremity: 2 n
  TEAE Vomiting: 2 n
  TRAE Arthralgia: 2 n
  TRAE Constipation: 1 n
  TRAE Decreased appetite: 3 n
  TRAE Fatigue: 0 n
  TRAE Hot flush: 0 n
  TRAE Nausea: 2 n
  TRAE Vomiting: 2 n
180 mg (N=7)
  TEAE Alanine aminotransferase increased: 2 n
  TEAE Arthralgia: 2 n
  TEAE Aspartate aminotransferase increased: 2 n
  TEAE Back pain: 0 n
  TEAE Constipation: 1 n
  TEAE Decreased appetite: 0 n
  TEAE Diarrhea: 0 n
  TEAE Dizziness: 0 n
  TEAE Fatigue: 2 n
  TEAE Headache: 0 n
  TEAE Hot flush: 0 n
  TEAE Hyperglycemia: 0 n
  TEAE Insomnia: 0 n
  TEAE Nausea: 2 n
  TEAE Pain in extremity: 1 n
  TEAE Vomiting: 0 n
  TRAE Arthralgia: 1 n
  TRAE Constipation: 0 n
  TRAE Decreased appetite: 0 n
  TRAE Fatigue: 1 n
  TRAE Hot flush: 0 n
  TRAE Nausea: 2 n
  TRAE Vomiting: 0 n
200 mg (N=8)
  TEAE Alanine aminotransferase increased: 2 n
  TEAE Arthralgia: 1 n
  TEAE Aspartate aminotransferase increased: 3 n
  TEAE Back pain: 1 n
  TEAE Constipation: 2 n
  TEAE Decreased appetite: 0 n
  TEAE Diarrhea: 1 n
  TEAE Dizziness: 0 n
  TEAE Fatigue: 1 n
  TEAE Headache: 1 n
  TEAE Hot flush: 1 n
  TEAE Hyperglycemia: 1 n
  TEAE Insomnia: 1 n
  TEAE Nausea: 3 n
  TEAE Pain in extremity: 0 n
  TEAE Vomiting: 1 n
  TRAE Arthralgia: 1 n
  TRAE Constipation: 2 n
  TRAE Decreased appetite: 0 n
  TRAE Fatigue: 0 n
  TRAE Hot flush: 1 n
